Assay results: article PMC12266337 (Biochemistry, 2025)
Where a SMILES comes first, the peptide text is derived from it. Where no end group is shown, it is not given here. [ ]: non-standard residue; d: D form.

Target: T1, ComD receptor (Streptococcus constellatus, UniProt O33616)
Assay: Luciferase reporter activation
Assay type: cell-based
Settings: not given

Row | Molecule | EC50
1 | CC[C@H](C)[C@H](NC(=O)[C@H](CCCNC(=N)N)NC(=O)[C@H](CO)NC(=O)[C@H](N)CC(=O)O)C(=O)N[C@@H](CCCNC(=N)N)C(=O)N[C@@H](CCSC)C(=O)NCC(=O)N[C@@H](Cc1ccccc1)C(=O)N[C@@H](CC(=O)O)C(=O)N[C@@H](Cc1ccccc1)C(=O)N[C@@H](CO)C(=O)N[C@@H](CCCCN)C(=O)N[C@@H](CC(C)C)C(=O)N[C@@H](Cc1ccccc1)C(=O)NCC(=O)N[C@@H](CCCCN)C(=O)O [CSP-d1] (H-[dD]SRIRMGFDFSKLFGK-OH) | 9.7 nM
2 | CC[C@H](C)[C@H](NC(=O)[C@H](CCCNC(=N)N)NC(=O)[C@H](CO)NC(=O)[C@@H](N)CC(=O)O)C(=O)N[C@@H](CCCNC(=N)N)C(=O)N[C@@H](CCSC)C(=O)NCC(=O)N[C@@H](Cc1ccccc1)C(=O)N[C@@H](CC(=O)O)C(=O)N[C@@H](Cc1ccccc1)C(=O)N[C@@H](CO)C(=O)N[C@@H](CCCCN)C(=O)N[C@@H](CC(C)C)C(=O)N[C@H](Cc1ccccc1)C(=O)NCC(=O)N[C@@H](CCCCN)C(=O)O [CSP-f14] (H-DSRIRMGFDFSKL[dF]GK-OH) | 2 nM
3 | CC[C@@H](C)[C@@H](NC(=O)[C@H](CCCNC(=N)N)NC(=O)[C@H](CO)NC(=O)[C@@H](N)CC(=O)O)C(=O)N[C@@H](CCCNC(=N)N)C(=O)N[C@@H](CCSC)C(=O)NCC(=O)N[C@@H](Cc1ccccc1)C(=O)N[C@@H](CC(=O)O)C(=O)N[C@@H](Cc1ccccc1)C(=O)N[C@@H](CO)C(=O)N[C@@H](CCCCN)C(=O)N[C@@H](CC(C)C)C(=O)N[C@@H](Cc1ccccc1)C(=O)NCC(=O)N[C@@H](CCCCN)C(=O)O [CSP-i4] (H-DSR[dI]RMGFDFSKLFGK-OH) | 25 nM
4 | CC[C@H](C)[C@H](NC(=O)[C@H](CCCNC(=N)N)NC(=O)[C@H](CO)NC(=O)[C@@H](N)CC(=O)O)C(=O)N[C@@H](CCCNC(=N)N)C(=O)N[C@@H](CCSC)C(=O)NCC(=O)N[C@@H](Cc1ccccc1)C(=O)N[C@@H](CC(=O)O)C(=O)N[C@@H](Cc1ccccc1)C(=O)N[C@@H](CO)C(=O)N[C@H](CCCCN)C(=O)N[C@@H](CC(C)C)C(=O)N[C@@H](Cc1ccccc1)C(=O)NCC(=O)N[C@@H](CCCCN)C(=O)O [CSP-k12] (H-DSRIRMGFDFS[dK]LFGK-OH) | 3.7 nM
5 | CC[C@H](C)[C@H](NC(=O)[C@H](CCCNC(=N)N)NC(=O)[C@H](CO)NC(=O)[C@@H](N)CC(=O)O)C(=O)N[C@@H](CCCNC(=N)N)C(=O)N[C@@H](CCSC)C(=O)NCC(=O)N[C@@H](Cc1ccccc1)C(=O)N[C@@H](CC(=O)O)C(=O)N[C@@H](Cc1ccccc1)C(=O)N[C@@H](CO)C(=O)N[C@@H](CCCCN)C(=O)N[C@@H](CC(C)C)C(=O)N[C@@H](Cc1ccccc1)C(=O)NCC(=O)N[C@H](CCCCN)C(=O)O [CSP-k16] (H-DSRIRMGFDFSKLFG[dK]-OH) | 1.7 nM
6 | CC[C@H](C)[C@H](NC(=O)[C@H](CCCNC(=N)N)NC(=O)[C@H](CO)NC(=O)[C@@H](N)CC(=O)O)C(=O)N[C@@H](CCCNC(=N)N)C(=O)N[C@@H](CCSC)C(=O)NCC(=O)N[C@@H](Cc1ccccc1)C(=O)N[C@@H](CC(=O)O)C(=O)N[C@@H](Cc1ccccc1)C(=O)N[C@@H](CO)C(=O)N[C@@H](CCCCN)C(=O)N[C@H](CC(C)C)C(=O)N[C@@H](Cc1ccccc1)C(=O)NCC(=O)N[C@@H](CCCCN)C(=O)O [CSP-l13] (H-DSRIRMGFDFSK[dL]FGK-OH) | 25 nM
7 | CC[C@H](C)[C@H](NC(=O)[C@H](CCCNC(=N)N)NC(=O)[C@H](CO)NC(=O)[C@@H](N)CC(=O)O)C(=O)N[C@@H](CCCNC(=N)N)C(=O)N[C@H](CCSC)C(=O)NCC(=O)N[C@@H](Cc1ccccc1)C(=O)N[C@@H](CC(=O)O)C(=O)N[C@@H](Cc1ccccc1)C(=O)N[C@@H](CO)C(=O)N[C@@H](CCCCN)C(=O)N[C@@H](CC(C)C)C(=O)N[C@@H](Cc1ccccc1)C(=O)NCC(=O)N[C@@H](CCCCN)C(=O)O [CSP-m6] (H-DSRIR[dM]GFDFSKLFGK-OH) | 35 nM
8 | CC[C@H](C)[C@H](NC(=O)[C@@H](CCCNC(=N)N)NC(=O)[C@H](CO)NC(=O)[C@@H](N)CC(=O)O)C(=O)N[C@@H](CCCNC(=N)N)C(=O)N[C@@H](CCSC)C(=O)NCC(=O)N[C@@H](Cc1ccccc1)C(=O)N[C@@H](CC(=O)O)C(=O)N[C@@H](Cc1ccccc1)C(=O)N[C@@H](CO)C(=O)N[C@@H](CCCCN)C(=O)N[C@@H](CC(C)C)C(=O)N[C@@H](Cc1ccccc1)C(=O)NCC(=O)N[C@@H](CCCCN)C(=O)O [CSP-r3] (H-DS[dR]IRMGFDFSKLFGK-OH) | 13 nM
9 | CC[C@H](C)[C@H](NC(=O)[C@H](CCCNC(=N)N)NC(=O)[C@H](CO)NC(=O)[C@@H](N)CC(=O)O)C(=O)N[C@H](CCCNC(=N)N)C(=O)N[C@@H](CCSC)C(=O)NCC(=O)N[C@@H](Cc1ccccc1)C(=O)N[C@@H](CC(=O)O)C(=O)N[C@@H](Cc1ccccc1)C(=O)N[C@@H](CO)C(=O)N[C@@H](CCCCN)C(=O)N[C@@H](CC(C)C)C(=O)N[C@@H](Cc1ccccc1)C(=O)NCC(=O)N[C@@H](CCCCN)C(=O)O [CSP-r5] (H-DSRI[dR]MGFDFSKLFGK-OH) | 47 nM
10 | CC[C@H](C)[C@H](NC(=O)[C@H](CCCNC(=N)N)NC(=O)[C@@H](CO)NC(=O)[C@@H](N)CC(=O)O)C(=O)N[C@@H](CCCNC(=N)N)C(=O)N[C@@H](CCSC)C(=O)NCC(=O)N[C@@H](Cc1ccccc1)C(=O)N[C@@H](CC(=O)O)C(=O)N[C@@H](Cc1ccccc1)C(=O)N[C@@H](CO)C(=O)N[C@@H](CCCCN)C(=O)N[C@@H](CC(C)C)C(=O)N[C@@H](Cc1ccccc1)C(=O)NCC(=O)N[C@@H](CCCCN)C(=O)O [CSP-s2] (H-D[dS]RIRMGFDFSKLFGK-OH) | 7.9 nM
11 | DARIRMGFDFSKLFGK [CSP S2A] | 5.6 nM
12 | DSRARMGFDFSKLFGK [CSP I4A] | 0.089 nM
13 | DSRIAMGFDFSKLFGK [CSP R5A] | 4.8 nM
14 | DSRIRAGFDFSKLFGK [CSP M6A] | 1.9 nM
15 | DSRIRMGFDFSKLFGA [CSP K16A] | 2.5 nM
16 | DSRIRMGFDFSKLFGK [Native CSP, reference compound] | 5.2 nM

Same assay, conditions: ΔcomC PcomX::luc reporter, agonism screening

Row | Molecule | QS activation (result in words)
17 | DSAIRMGFDFSKLFGK [CSP R3A] | complete loss of function
18 | DSRIRMGFDFSKLAGK [CSP F14A] | abolished QS activation

Target: T1, ComD receptor
Assay: not given
Assay type: cell-based
Settings: not given

Row | Molecule | IC50
19 | ASRIRMGFDFSKLFGK [CSP D1A] | 120 nM
